Like-named read-outs stand apart in the source and are kept apart here.
Columns and labels:
[1] = Measurement of tamoxifen metabolites in finger-prick blood (VAMS, UPLC-MS/MS); format: in vivo, human (Indonesian ER+ breast cancer patients); conditions: for range of metabolite levels before dose adjustment / range of metabolite levels after dose adjustment: IM patients (n=26); for range of metabolite levels before dose adjustment: tamoxifen 20 mg daily; for range of metabolite levels after dose adjustment: tamoxifen 40 mg daily for two months; for concentration at 8 weeks: human, whole blood (finger-prick, VAMS), oral, 40 mg daily, read-out: range of metabolite levels after dose adjustment
Procedure: Finger-prick blood sample was obtained using Volumetric Absorptive Microsampling (VAMS) technique. VAMS extraction was performed in methanol by sonication-assisted extraction method for 25 minutes after 2 hours of VAMS drying. Separation was carried out using Acquity UPLC BEH C1s column (2.1×100 mm; 1.7 μm), with a flow rate of 0.2 mL/minute, and the mobile phase gradient of formic acid 0.1% combined with formic acid 0.1% in acetonitrile for 5 minutes. The UPLC-MS/MS Waters Xevo TQD Triple Quadrupole with MassLynx Software controller (Waters, Milford, USA) was employed in metabolites measurement. Mass detection was carried out utilizing Triple Quadrupole (TOD) with Multiple Reaction Monitoring (MRM) analysis modes and an electrospray ionization source using positive mode. The method was developed in the Bioavailability and Bioequivalence Laboratory of Universitas Indonesia and validated according to FDA and EMA guidelines. The multiple reaction monitoring (MRM) value were set at m/z 372.28>72.22 for TAM; 374.29>58.22 for END; 388.29>72.19 for 4-HT; 358.22>58.09 for NDT; and 260.20>116.20 for propranolol as the internal standard.
(§1) This group of patients were determined based on clinical judgement according to the available guidelines by The National Surgical Oncologist Organization and Ministry of Health in Indonesia (Komite Penanggulangan Kanker Nasional, n.d.), National Comprehensive Cancer Network (NCCN, 2021), and British Columbia Cancer Agency.
(§2) Data and statistical analysis were performed using Microsoft® Excel® for Microsoft 365 and R version 4.0.3. Deviation from Hardy-Weinberg equilibrium was performed on the haplotype frequencies using the chi-square statistical test, where Bonferonni correction was applied to determine the p-value threshold for significant deviation. Analysis of Variance (ANOVA) test was used to see if metabolite levels distribution at baseline were statistically different across all metabolites, followed by a paired T-test between each pair of metabolites when significance was found. Distribution of metabolite levels before and after dose adjustment was compared using a T-test, and the same test was used to compare the distribution of metabolite levels in IMs post-dose adjustment against NMs (baseline). Concerning symptoms related to endocrine therapy post-dose adjustment on IMs were compared against NMs. Chi-square test was performed per symptom to check for the difference between the two groups.

[2] = cited from earlier work
[3] = Endocrine symptoms / side effects of tamoxifen therapy, FACT-ES questionnaire; format: in vivo, human (Indonesian ER+ breast cancer patients)
Procedure: as §1, §2

[4] = CYP2D6 Intermediate Metabolizer (N = 61), baseline
[5] = CYP2D6 Normal Metabolizer (N = 81), baseline
[6] = CYP2D6 Poor Metabolizer (N = 2), baseline
[7] = IM participants, 40 mg tamoxifen daily (N = 22), eight weeks after dose adjustment
[8] = IM participants, 40 mg tamoxifen daily, eight weeks after dose adjustment
[9] = IMs, 40 mg tamoxifen daily, n=26
[10] = NM participants, 20 mg tamoxifen daily (N = 31)
[11] = NMs, 20 mg tamoxifen daily, n=31

## 4-hydroxytamoxifen
[1]
  range of metabolite levels before dose adjustment: 1.5 to 9.31 ng/mL
  range of metabolite levels after dose adjustment: 3.34 to 12.99 ng/mL

## CC/C(=C(\c1ccc(O)cc1)c1ccc(OCCN(C)C)cc1)c1ccccc1 [4OH-tam]
[1]; [4]
  Peripheral Whole Blood Concentration, Median: 3.27 ng/mL
  Peripheral Whole Blood Concentration, Range: 1.5 to 9.31 ng/mL
[1]; [5]
  Peripheral Whole Blood Concentration, Median: 3.07 ng/mL
  Peripheral Whole Blood Concentration, Range: 1.5 to 7.66 ng/mL
[1]; [6]
  Peripheral Whole Blood Concentration, Median: 3.24 ng/mL
  Peripheral Whole Blood Concentration, Range: 3.06 to 3.43 ng/mL

## CC/C(=C(\c1ccccc1)c1ccc(OCCNC)cc1)c1ccccc1 [N-desmethyltamoxifen]
[1]
  range of metabolite levels before dose adjustment: 77.61 to 337.29 ng/mL
  range of metabolite levels after dose adjustment: 236.8 to 501.9 ng/mL

## CC/C(=C(\c1ccccc1)c1ccc(OCCNC)cc1)c1ccccc1 [ND-tam]
[1]; [4]
  Peripheral Whole Blood Concentration, Median: 241.55 ng/mL
  Peripheral Whole Blood Concentration, Range: 77.61 to 337.29 ng/mL
[1]; [5]
  Peripheral Whole Blood Concentration, Median: 240.59 ng/mL
  Peripheral Whole Blood Concentration, Range: 80.63 to 321.88 ng/mL
[1]; [6]
  Peripheral Whole Blood Concentration, Median: 276.45 ng/mL
  Peripheral Whole Blood Concentration, Range: 212.5 to 340.41 ng/mL

## CC/C(=C(\c1ccc(O)cc1)c1ccc(OCCNC)cc1)c1ccccc1 [endoxifen, 4-hydroxy-N-desmethyltamoxifen]
[1]; [4]
  Peripheral Whole Blood Concentration, Median: 8.33 ng/mL
  Peripheral Whole Blood Concentration, Range: 3.17 to 22.97 ng/mL
[1]; [5]
  Peripheral Whole Blood Concentration, Median: 11.98 ng/mL
  Peripheral Whole Blood Concentration, Range: 3.55 to 34.77 ng/mL
[1]; [6]
  Peripheral Whole Blood Concentration, Median: 4.52 ng/mL
  Peripheral Whole Blood Concentration, Range: 3.94 to 5.11 ng/mL
[1]
  range of metabolite levels before dose adjustment: 3.17 to 22.97 ng/mL
  concentration at 8 weeks: 7.68 to 23.4 ng/mL
[1]; NM patients (n=81), tamoxifen 20 mg/day, baseline
  endoxifen levels in NMs at baseline: 3.55 to 34.77 ng/mL
[1]; this study, IMs
  average endoxifen level of IMs: 9.6 ng/mL
[2]; previous study
  average endoxifen level of IMs: 8.1 ng/mL
[2]; study in Singaporean population
  range of endoxifen level: 1.74 to 42.8 ng/mL
[2]; study in Swedish population
  range of endoxifen level: 2.3 to 16 ng/mL

## CC/C(=C(\c1ccccc1)c1ccc(OCCN(C)C)cc1)c1ccccc1 [tamoxifen]
[3]; 40 mg daily versus 20 mg daily, eight weeks after dose adjustment
  toxicity or side effects on dose escalation: did not increase potential toxicity or side effects
[3]; [7]
  Cold Sweats: Patients reported side effect (%): 19.23%
  Diarrhea: Patients reported side effect (%): 0.00%
  Headaches: Patients reported side effect (%): 53.85%
  Hot Flashes: Patients reported side effect (%): 50.00%
  Lightheaded (dizzy): Patients reported side effect (%): 34.62%
  Mood swings: Patients reported side effect (%): 65.38%
  Pain in joints: Patients reported side effect (%): 50.00%
  Pain or discomfort with intercourse: Patients reported side effect (%): 3.85%
[3]; [8]
  Breast sensitivity/tenderness: Patients reported side effect (%): 53.85%
  Irritable: Patients reported side effect (%): 61.54%
  Lost interest in sex: Patients reported side effect (%): 15.38%
  Night sweats: Patients reported side effect (%): 26.92%
  Vaginal bleeding or spotting: Patients reported side effect (%): 23.08%
  Vaginal discharge: Patients reported side effect (%): 42.31%
  Vaginal dryness: Patients reported side effect (%): 11.54%
  Vaginal itching/irritation: Patients reported side effect (%): 15.38%
  Vomiting: Patients reported side effect (%): 3.85%
  Weight gain: Patients reported side effect (%): 65.38%
[3]; [9]
  breast sensitivity or tenderness, participants reporting: 53.85%
  cold sweats, participants reporting: 19.23%
  headaches, participants reporting: 53.85%
  hotflush, participants reporting: 50%
  irritability, participants reporting: 61.54%
  lightheaded/dizziness, participants reporting: 34.62%
  lost interest in sex, participants reporting: 15.38%
  mood swings, participants reporting: 65.83%
  night sweats, participants reporting: 26.92%
  pain in joints, participants reporting: 50%
  pain or discomfort during intercourse, participants reporting: 3.85%
  vaginal bleeding or spotting, participants reporting: 23.08%
  vaginal discharge, participants reporting: 42.31%
  vaginal dryness, participants reporting: 11.54%
  vaginal itching or irritation, participants reporting: 15.38%
  vomiting, participants reporting: 3.85%
  weight gain, participants reporting: 65.83%
[3]; IMs, 40 mg tamoxifen daily, post-dose adjustment
  diarrhea, participants reporting: No post-dose adjustment participants reported diarrhea
[3]; [10]
  Breast sensitivity/tenderness: Patients reported side effect (%): 41.94%
  Cold Sweats: Patients reported side effect (%): 12.90%
  Diarrhea: Patients reported side effect (%): 3.23%
  Headaches: Patients reported side effect (%): 29.03%
  Hot Flashes: Patients reported side effect (%): 35.48%
  Irritable: Patients reported side effect (%): 58.06%
  Lightheaded (dizzy): Patients reported side effect (%): 35.48%
  Lost interest in sex: Patients reported side effect (%): 64.52%
  Mood swings: Patients reported side effect (%): 74.19%
  Night sweats: Patients reported side effect (%): 29.03%
  Pain in joints: Patients reported side effect (%): 67.74%
  Pain or discomfort with intercourse: Patients reported side effect (%): 51.61%
  Vaginal bleeding or spotting: Patients reported side effect (%): 16.13%
  Vaginal dryness: Patients reported side effect (%): 32.26%
  Vaginal itching/irritation: Patients reported side effect (%): 22.58%
  Vomiting: Patients reported side effect (%): 6.45%
  Weight gain: Patients reported side effect (%): 64.52%
[3]; [11]
  breast sensitivity or tenderness, respondents reporting: 41.94%
  cold sweats, respondents reporting: 12.9%
  diarrhea, respondents reporting: 3.23%
  headaches, respondents reporting: 29.03%
  hotflush, respondents reporting: 35.48%
  irritability, respondents reporting: 58.06%
  lightheaded/dizziness, respondents reporting: 35.48%
  lost interest in sex, respondents reporting: 64.52%
  mood swings, respondents reporting: 74.19%
  night sweats, respondents reporting: 29.03%
  pain in joints, respondents reporting: 67.74%
  pain or discomfort during intercourse, respondents reporting: 51.61%
  vaginal bleeding or spotting, respondents reporting: 16.13%
  vaginal dryness, respondents reporting: 32.26%
  vaginal itching or irritation, respondents reporting: 22.58%
  vomiting, respondents reporting: 6.45%
[3]; observed population, short follow up
  thrombophlebitis, thrombosis, endometriosis, and endometrial cancer: none of these side effects were observed
[1]; [4]
  Peripheral Whole Blood Concentration, Median: 81.72 ng/mL
  Peripheral Whole Blood Concentration, Range: 14.22 to 210.39 ng/mL
[1]; [5]
  Peripheral Whole Blood Concentration, Median: 77.46 ng/mL
  Peripheral Whole Blood Concentration, Range: 31.22 to 170.82 ng/mL
[1]; [6]
  Peripheral Whole Blood Concentration, Median: 91.49 ng/mL
  Peripheral Whole Blood Concentration, Range: 67.49 to 115.48 ng/mL
[1]
  range of metabolite levels before dose adjustment: 14.22 to 210.39 ng/mL
  concentration at 8 weeks: 80.6 to 255 ng/mL

From patent US20240301501A1, “A METHOD FOR ASSESSING THE POTENTIAL EFFECT OF THERAPEUTICS ON AN INDIVIDUAL” (AGENCY FOR SCIENCE TECHNOLOGY AND RESEARCH, priority 2022, published 2024)
